# Measurements reported in publication PMC4450297, “Screening Active Compounds from Garcinia Species Native to China Reveals Novel Compounds Targeting the STAT/JAK Signaling Pathway” (BioMed Research International, 2015).
# Where two headings read alike, the source gives them in different places.
# Legend:
# [1] = target: T1, JAK2 (Homo sapiens, UniProt O60674); experiment: Microfluidic mobility shift enzyme assay; assay type: biochemical
# T1 construct: purchased Carna Bioscience, Inc. (Japan)
# Experimental: (§1) The microfluidic mobility shift enzyme assay was performed in an on-chip incubation mode on a Caliper LabChip 2000 Drug Discovery System (Caliper Life Sciences, Hopkinton, MA). The extent of inhibition by the compounds is measured directly by quantifying the level of both unphosphorylated peptide substrate and phosphorylated product after electrophoretic separation using Caliper's LabChip assay technology. To evaluate the compounds for their target and the mechanism by which the compound affects JAK enzyme activity, the compounds were tested against JAK family kinases (JAK1, JAK2, JAK3, and Tyk2) with the Caliper microfluidic mobility-shift platform. The JAK family kinase enzymes and the FAM-labeled substrates were purchased from Carna Bioscience, Inc. (Japan) and Caliper Bioscience (US), respectively.
# (§2) For JAK kinase activity measurement, the test compounds were diluted freshly with assay buffer (100 mM HEP ES, 10 mM MgCl2, 1.5 mM betaine, 0.015% Brij, and 25 mM β-glycerophosphate) and added to 384-well plates. FAM-labeled peptide substrate and ATP in assay buffer were added to the wells. After that, JAK enzymes prepared in assay buffer were also added to the wells and mixed to start the reaction. After a period of incubation at room temperature, the reaction was stopped by stop solution (500 mM EDTA). Finally, the plate was put on a Caliper LabChip 2000 system and a droplet of the reaction mixture was applied for electrophoretic separation in the chips of the machine. The enzyme conversion data then was read out for analysis.
# [2] = target: T2, Tyk2 (Homo sapiens, UniProt P29597); experiment: Microfluidic mobility shift enzyme assay; assay type: biochemical
# T2 construct: purchased Carna Bioscience, Inc. (Japan)
# Experimental: as §1, §2
# [3] = target: T3, JAK1 (Homo sapiens, UniProt P23458); experiment: Microfluidic mobility shift enzyme assay; assay type: biochemical
# T3 construct: purchased Carna Bioscience, Inc. (Japan)
# Experimental: as §1, §2
# [4] = system: NCI-H1650 cells; experiment: Apoptosis induction assay (Cell Death Detection ELISA); assay type: cell-based, human; conditions: for effect of Z-VAD cotreatment on compound-induced oligonucleosomal fragmentation: NCI-H1650 cells, Z-VAD 10 μmol/L; for NCI-H1650 cells that underwent rapid apoptosis: after 8 h
# Experimental: Apoptosis induction assays were performed after 8 or 24 h incubation with compounds using the Cell Death Detection ELISA assay (Roche). Apoptosis induction is represented relative to DMSO-treated controls (set at 1.0). Error bars denote the SEM.
# [5] = system: NCI-H1650; experiment: Cell proliferation assay (CellTiter-Glo); assay type: cell-based, human; conditions: NCI-H1650 cells, 20 μM to 0.009 μM in serial 3-fold dilutions
# Experimental: (§3) All cells were obtained from the cell bank of the American Type Culture Collection (ATCC) and cultured in the supplier's recommended media supplemented with 10% FBS. The cell panel screen was measured using the CellTiter-Glo assay (Promega, Madison, WI) following a standard protocol. Briefly, cancer cells were seeded in 96-well plates and cultured overnight at 37°C with or without 5% CO2 in an incubator. Each compound was dissolved with limited DMSO and diluted to a certain concentration with culture medium and then added to the corresponding well of the cell plate. The final concentration of compound was 20 μM. The control cells (without treatment) received the same amount of DMSO and were incubated under the same conditions. After 72 h cultivation, 100 μL of the CellTiter-Glo reagent was added directly to each well for 10-minute incubation. The plate was then read on a FlexStation 3 microplate luminometer (Molecular Devices, USA) to monitor the luminescence signal generated by the luciferase-catalyzed reaction of luciferin and ATP. The percent of growth inhibition was calculated using the following formula: (untreated cells − treated cells)/(untreated cells − background without cells) ∗ 100.
# (§4) For proliferation assays, the CellTiter-Glo assay (Promega, Madison, WI) was used to evaluate the proliferation of cancer cells treated with test compounds as described above. Each compound was dissolved in limited DMSO and diluted to various concentrations with culture medium and then added to the corresponding wells. A dose-response curve was plotted, and the IC50 was calculated using XLfit software.
# [6] = system: NCI-H1993; experiment: Cell proliferation assay (CellTiter-Glo); assay type: cell-based; conditions: Homo sapiens, NCI-H1993 cells, 72 h
# Experimental: as §3, §4
# [7] = system: NCI-H1573; experiment: Cell proliferation assay (CellTiter-Glo); assay type: cell-based; conditions: Homo sapiens, NCI-H1573 cells, 72 h
# Experimental: as §3, §4
# [8] = system: SK-MEL-28; experiment: Cell proliferation assay (CellTiter-Glo); assay type: cell-based; conditions: Homo sapiens, SK-MEL-28 cells, 72 h
# Experimental: as §3, §4
# [9] = system: SW48; experiment: Cell proliferation assay (CellTiter-Glo); assay type: cell-based; conditions: Homo sapiens, SW48 cells, 72 h
# Experimental: as §3, §4
# [10] = system: NCI-H838; experiment: Cell proliferation assay (CellTiter-Glo); assay type: cell-based; conditions: Homo sapiens, NCI-H838 cells, 72 h
# Experimental: as §3, §4
# [11] = system: NCI-H1975; experiment: Cell proliferation assay (CellTiter-Glo); assay type: cell-based; conditions: Homo sapiens, NCI-H1975 cells, 72 h
# Experimental: as §3, §4
# [12] = system: SW1353; experiment: Cell proliferation assay (CellTiter-Glo); assay type: cell-based; conditions: Homo sapiens, SW1353 cells, 72 h
# Experimental: as §3, §4
# [13] = system: A549; experiment: Cell proliferation assay (CellTiter-Glo); assay type: cell-based; conditions: Homo sapiens, A549 cells, 72 h
# Experimental: as §3, §4
# [14] = system: LnCap; experiment: Cell proliferation assay (CellTiter-Glo); assay type: cell-based; conditions: Homo sapiens, LnCap cells, 72 h
# Experimental: as §3, §4
# [15] = system: SW954; experiment: Cell proliferation assay (CellTiter-Glo); assay type: cell-based; conditions: Homo sapiens, SW 954, SW954 cells, 72 h
# Experimental: as §3, §4
# [16] = system: U118MG; experiment: Cell proliferation assay (CellTiter-Glo); assay type: cell-based; conditions: Homo sapiens, U-118-MG, U118MG cells, 72 h
# Experimental: as §3, §4
# [17] = system: CHP212; experiment: Cell proliferation assay (CellTiter-Glo); assay type: cell-based; conditions: Homo sapiens, CHP-212, CHP212 cells, 72 h
# Experimental: as §3, §4
# T2 sequence (P29597 whole entry): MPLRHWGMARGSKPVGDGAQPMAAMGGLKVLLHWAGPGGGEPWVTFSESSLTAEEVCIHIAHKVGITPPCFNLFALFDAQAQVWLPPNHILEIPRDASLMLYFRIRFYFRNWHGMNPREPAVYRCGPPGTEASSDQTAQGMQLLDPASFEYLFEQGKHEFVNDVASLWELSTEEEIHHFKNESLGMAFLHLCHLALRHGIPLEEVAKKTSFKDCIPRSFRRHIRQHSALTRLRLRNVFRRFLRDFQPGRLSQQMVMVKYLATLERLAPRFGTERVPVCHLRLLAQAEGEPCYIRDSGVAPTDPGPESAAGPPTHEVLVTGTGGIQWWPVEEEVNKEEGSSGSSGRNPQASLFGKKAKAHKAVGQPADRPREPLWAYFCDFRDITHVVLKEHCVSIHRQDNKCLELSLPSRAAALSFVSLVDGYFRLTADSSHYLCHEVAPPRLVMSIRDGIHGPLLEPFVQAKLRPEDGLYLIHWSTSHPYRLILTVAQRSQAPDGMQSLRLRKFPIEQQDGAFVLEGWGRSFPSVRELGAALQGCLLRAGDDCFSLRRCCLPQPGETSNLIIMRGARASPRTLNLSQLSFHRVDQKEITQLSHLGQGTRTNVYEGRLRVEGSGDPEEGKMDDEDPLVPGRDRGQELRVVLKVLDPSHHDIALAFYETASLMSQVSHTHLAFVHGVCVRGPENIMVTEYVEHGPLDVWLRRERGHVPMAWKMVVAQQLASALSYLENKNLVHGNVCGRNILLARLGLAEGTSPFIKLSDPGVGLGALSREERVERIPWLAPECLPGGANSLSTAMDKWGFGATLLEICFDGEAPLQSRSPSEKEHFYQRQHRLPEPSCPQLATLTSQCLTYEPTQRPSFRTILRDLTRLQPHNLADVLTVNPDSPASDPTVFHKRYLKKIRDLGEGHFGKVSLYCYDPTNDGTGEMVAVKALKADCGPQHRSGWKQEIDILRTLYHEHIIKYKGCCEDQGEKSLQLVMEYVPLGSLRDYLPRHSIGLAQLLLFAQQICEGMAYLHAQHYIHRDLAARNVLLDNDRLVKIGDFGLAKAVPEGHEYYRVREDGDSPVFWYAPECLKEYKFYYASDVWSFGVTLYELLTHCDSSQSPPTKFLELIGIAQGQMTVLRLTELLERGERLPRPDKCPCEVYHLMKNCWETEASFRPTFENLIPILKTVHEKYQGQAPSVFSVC
# T1 sequence (O60674 whole entry): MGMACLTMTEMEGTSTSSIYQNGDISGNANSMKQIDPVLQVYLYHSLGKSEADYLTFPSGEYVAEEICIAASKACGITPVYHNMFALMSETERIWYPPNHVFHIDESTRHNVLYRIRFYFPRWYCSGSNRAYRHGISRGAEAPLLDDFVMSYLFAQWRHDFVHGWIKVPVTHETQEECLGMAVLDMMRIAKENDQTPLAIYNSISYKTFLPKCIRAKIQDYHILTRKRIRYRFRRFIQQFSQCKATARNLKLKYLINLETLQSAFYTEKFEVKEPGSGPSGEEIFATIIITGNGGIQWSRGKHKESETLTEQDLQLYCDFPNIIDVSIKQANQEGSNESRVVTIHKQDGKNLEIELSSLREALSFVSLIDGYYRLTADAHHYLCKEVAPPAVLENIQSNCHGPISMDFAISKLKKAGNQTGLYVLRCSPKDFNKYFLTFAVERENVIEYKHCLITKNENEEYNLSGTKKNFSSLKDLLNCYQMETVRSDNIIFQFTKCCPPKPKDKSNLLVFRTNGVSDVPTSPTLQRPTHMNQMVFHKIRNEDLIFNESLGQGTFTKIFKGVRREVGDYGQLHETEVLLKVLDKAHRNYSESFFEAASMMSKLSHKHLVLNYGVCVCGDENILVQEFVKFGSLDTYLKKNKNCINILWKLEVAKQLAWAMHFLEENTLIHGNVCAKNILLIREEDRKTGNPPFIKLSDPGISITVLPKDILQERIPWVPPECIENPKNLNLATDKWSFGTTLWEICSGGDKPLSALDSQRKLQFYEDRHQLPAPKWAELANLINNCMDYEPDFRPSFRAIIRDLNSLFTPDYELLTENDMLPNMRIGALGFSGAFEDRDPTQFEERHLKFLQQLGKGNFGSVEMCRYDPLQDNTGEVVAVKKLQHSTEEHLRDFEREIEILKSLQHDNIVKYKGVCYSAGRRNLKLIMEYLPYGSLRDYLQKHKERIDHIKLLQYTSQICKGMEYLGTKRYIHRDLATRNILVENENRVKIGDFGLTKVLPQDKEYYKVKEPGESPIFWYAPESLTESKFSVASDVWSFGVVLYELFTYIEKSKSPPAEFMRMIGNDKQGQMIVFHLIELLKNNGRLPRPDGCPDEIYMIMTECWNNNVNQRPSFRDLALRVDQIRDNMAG
# T3 sequence (P23458 whole entry): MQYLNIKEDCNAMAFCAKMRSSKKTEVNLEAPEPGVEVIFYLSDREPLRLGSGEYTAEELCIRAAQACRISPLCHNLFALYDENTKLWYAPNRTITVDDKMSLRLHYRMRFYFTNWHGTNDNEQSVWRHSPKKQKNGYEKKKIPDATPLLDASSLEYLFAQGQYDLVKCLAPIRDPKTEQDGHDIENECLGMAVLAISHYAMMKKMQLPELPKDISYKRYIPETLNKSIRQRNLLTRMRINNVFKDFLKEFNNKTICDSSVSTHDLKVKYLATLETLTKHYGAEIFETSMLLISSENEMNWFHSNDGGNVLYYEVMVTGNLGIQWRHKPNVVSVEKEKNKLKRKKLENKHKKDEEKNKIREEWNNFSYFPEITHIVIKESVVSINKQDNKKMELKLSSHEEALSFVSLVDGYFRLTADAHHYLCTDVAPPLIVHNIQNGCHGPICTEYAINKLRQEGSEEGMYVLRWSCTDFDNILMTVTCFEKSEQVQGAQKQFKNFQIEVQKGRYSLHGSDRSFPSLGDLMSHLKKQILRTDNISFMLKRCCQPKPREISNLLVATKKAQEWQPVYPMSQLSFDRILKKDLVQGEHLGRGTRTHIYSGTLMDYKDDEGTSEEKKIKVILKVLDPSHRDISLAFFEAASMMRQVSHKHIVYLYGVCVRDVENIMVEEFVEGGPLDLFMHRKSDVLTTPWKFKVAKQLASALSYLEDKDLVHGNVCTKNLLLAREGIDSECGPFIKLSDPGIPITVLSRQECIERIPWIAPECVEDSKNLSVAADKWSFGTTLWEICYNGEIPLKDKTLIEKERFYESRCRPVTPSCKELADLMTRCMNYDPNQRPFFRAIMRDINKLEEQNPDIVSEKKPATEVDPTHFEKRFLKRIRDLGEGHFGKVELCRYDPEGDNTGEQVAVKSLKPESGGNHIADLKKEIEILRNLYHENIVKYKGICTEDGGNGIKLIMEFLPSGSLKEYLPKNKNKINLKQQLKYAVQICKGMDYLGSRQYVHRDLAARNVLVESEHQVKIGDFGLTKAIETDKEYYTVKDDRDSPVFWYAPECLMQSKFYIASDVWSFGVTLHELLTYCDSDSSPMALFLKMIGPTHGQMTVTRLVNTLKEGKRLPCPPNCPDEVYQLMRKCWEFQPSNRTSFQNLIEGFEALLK
SMILES,inhibition of JAK2 kinase activity (in words) [1],inhibition of Tyk2 kinase activity (in words) [2],inhibition of JAK1 kinase activity (in words) [3],effect of Z-VAD cotreatment on compound-induced oligonucleosomal fragmentation [4],IC50 [6] [nM],IC50 [7] [nM],IC50 [8] [nM],IC50 [9] [nM],IC50 [10] [nM],IC50 [11] [nM],IC50 [12] [nM],IC50 [13] [nM],IC50 [14] [nM],IC50 [15] [nM],IC50 [16] [nM],IC50 [17] [nM],difference in IC50s between JAK2 and Tyk2 [1] [fold],"IC50 ([1]; JAK2 enzyme, read-out: IC50) [nM]","IC50 ([2]; Tyk2 enzyme, read-out: IC50) [nM]","IC50 ([5]; Homo sapiens, NCI-H1650, 72 h) [nM]",further results
CC(C)=CCC/C(C)=C/Cc1c(O)c(CC=C(C)C)c2c(c1O)C(=O)C1=C[C@@H]3C[C@H]4C(C)(C)O[C@@](CC=C(C)C)(C3=O)[C@@]14O2 [GB32],minor inhibition,no effect,no effect,completely suppressed,2470 ± 110,4360 ± 150,1510 ± 70,3840 ± 90,3150 ± 40,1580 ± 120,1410 ± 50,2880 ± 60,1800 ± 140,2430 ± 170,1190 ± 70,1450 ± 80,–,–,–,–,"IC50 ([1]; IC50, JAK2 enzyme): 37300 ± 6900 nM; IC50 [2]: > 40000 nM; IC50 [3]: > 40000 nM; apoptosis induction (oligonucleosomal fragmentation) ([4]; after 24 h): significant apoptosis; IC50 ([5]; Homo sapiens, 72 hr): 1090 ± 150 nM"
"CC(C)=CCC[C@@]1(C)C=Cc2c(O)c3c(c(CCC(C)(C)O)c2O1)O[C@]12C(=C[C@@H]4C[C@H]1C(C)(C)O[C@@]2(C/C=C(/C)C(=O)O)C4=O)C3=O [GB39, 33-hydroxyepigambogic acid]",significantly inhibited,minor inhibitory effects,minor inhibitory effects,completely suppressed,1030 ± 130,6080 ± 210,820 ± 110,1440 ± 60,1500 ± 70,1250 ± 140,760 ± 30,3040 ± 100,840 ± 80,940 ± 40,1150 ± 90,1200 ± 80,10,1700 ± 100,13000 ± 1600,< 1000,"IC50 ([3]; JAK1 enzyme, read-out: IC50): 12200 ± 300 nM; NCI-H1650 cells that underwent rapid apoptosis [4]: > 90%; IC50 ([5]; 72 hr): 950 ± 30 nM"
"CC(C)=CCC[C@@]1(C)C=Cc2c(O)c3c(c(C/C=C(\C)CO)c2O1)O[C@]12C(=C[C@@H]4C[C@H]1C(C)(C)O[C@@]2(C/C=C(/C)C(=O)O)C4=O)C3=O [GB40, 35-hydroxyepigambogic acid]",significantly inhibited,minor inhibitory effects,minor inhibitory effects,completely suppressed,1290 ± 50,5990 ± 190,730 ± 210,1470 ± 100,1680 ± 190,960 ± 50,830 ± 50,2450 ± 60,790 ± 120,1020 ± 100,1030 ± 150,1180 ± 50,10,1400 ± 100,12900 ± 900,< 1000,"IC50 ([3]; JAK1 enzyme, read-out: IC50): 14200 ± 400 nM; NCI-H1650 cells that underwent rapid apoptosis [4]: > 90%; IC50 ([5]; 72 hr): 620 ± 30 nM"
CC(C)=CCC/C(C)=C/Cc1c(O)c(CC=C(C)C)c2c(c1O)C(=O)C1=C[C@@H]3C[C@H]4C(C)(C)O[C@@](C/C=C(\C)C=O)(C3=O)[C@@]14O2 [GB49],–,–,–,–,2550 ± 140,7890 ± 140,1510 ± 120,2970 ± 60,2720 ± 150,1690 ± 150,1290 ± 50,3460 ± 200,1910 ± 60,1880 ± 100,1220 ± 50,1430 ± 30,–,–,–,970 ± 40,–
CC(C)=CCC/C(C)=C/Cc1c(O)c(CC=C(C)C)c2c(c1O)C(=O)C1=C[C@@H]3C[C@H]4C(C)(C)O[C@@](C/C=C(\C)C(=O)O)(C3=O)[C@@]14O2 [GB63],–,–,–,–,2150 ± 100,7920 ± 290,1750 ± 160,4020 ± 150,2650 ± 200,1710 ± 220,2480 ± 110,3770 ± 60,2170 ± 210,2580 ± 160,3050 ± 100,3510 ± 80,–,–,–,1430 ± 90,–
